Source: patent publication US5670546A, “N-Arylalkylphenylacetamide derivatives” (Korean Research Institute of Chemical Technology, priority 1995, dated 1997)

Legend:
[1] = system: KTC-ICR mice; test: phenyl-1,4-benzoquinone (PBQ) induced writhing test (analgesic effect); type: in vivo; settings: Mus musculus, ip, read-out: ED50 PBQ
Procedure: (§1) Physiological activities of the compounds obtained in Examples 1 to 11 were measured by employing acetic acid or phenyl-1,4-benzoquinone(PBQ) induced writhing test.
(§2) The KTC-ICR mice provided by Experimental Animal Laboratory of Korea Research Institute of Chemical Technology were used as test animals. […] They were tested in a group consisting of 8 mice for each dosage of a test compound after having been adjusted to the testing environment for a week. Food and water were given freely; and illumination was maintained on a 12-hour cycle.
(§3) Test solutions were prepared by dissolving one of the final products obtained in Examples 1 to 11 in distilled water containing 1% of Tween and 5% ethanol in a pre-determined concentration. The test solutions were used after serial dilution depending on each dosage.
(§4) The test solutions were intraperitoneally administered in a dose of 0.1 ml per 10 g of a body weight. 0.1 ml of 1% acetic acid solution or 0.1 ml of 0.02% PBQ solution was administered after 60 minutes in case of oral administration or after 30 minutes in case of subcutaneous injection.
(§5) Then, the number of writhings generated during a period of 10 minutes after 3 minutes from the administration of acetic acid was measured. In case of the administration of PBQ, the number of writhings generated during a period of 5 minutes after 5 minutes from the administration was measured.
(§6) For a comparison purpose, initially, distilled water containing 1% of Tween and 5% ethanol alone was administered to the control group. Then, the control groups were subjected the same procedure as the test groups.
(§7) The number of writhings suffered by the test group was compared with that of the control group; and the analgesic effect was measured in terms of the percentage of inhibition of writhing(I. W.). [formula] wherein: A is the number of writhings suffered by the control group; and
(§8) B is the number of writhings suffered by the test group.
(§9) I.W. values for each dosage were calculated by employing regression analysis. The amount of a test compound which is required in reducing the frequency of writhings to the 50% level of that generated by the control group, i.e., B=0.5A or I.W.=50%, is designated as ED50 (mg/kg of a body weight). Therefore, a lower value of ED50 represents a higher analgesic effect of the tested compound.

[2] = system: KTC-ICR mice; test: acetic acid induced writhing test (analgesic effect); type: in vivo; settings: for ED50: Mus musculus, ip, read-out: ED50 acetic acid
Procedure: as §1, §2, §3, §4, §5, §6, §7, §8, §9

[3] = system: test animals; test: toxicity test: behavioral changes in the test animals observed by the naked eye; type: in vivo, KTC-ICR mice; parameters: key to Convulsion / Salivation / Urination: score; normal value 0, higher number = greater side effects; settings: score; for Convulsion / Salivation / Urination: normal value 0; for Dyspnoea / Ptosis / Sedation / Vasodilation: normal value 4
Procedure: In order to monitor a harmful side-effect or toxicity of the present compounds, various behavioral changes in the test animals were observed. After the test and the control solutions were administered to the animals, symptoms such as sedation, ptosis, dyspnoea, vasodilation, convulsion, salivation and urination were observed by the naked eye and the level of such changes was represented by a numbering system: that is, the normal value of the last three behaviors(i.e., urination, convulsion and salivation) is 0; and that of the others(i.e., sedation, ptosis, dyspnoea and vasodilation) is 4. The higher the number is, the greater the side effects are.

[4] = acetic acid induced writhing, 50% reduction of writhings vs control group, mice 20 to 25 g
[5] = PBQ induced writhing, 50% reduction of writhings vs control group, mice 14 to 18 g

CC(=O)Oc1ccccc1C(=O)O [Aspirin]
ED50 [1]: 71.4 mg/kg

COc1cc(CNC(=O)CCCC/C=C/C(C)C)ccc1O [Capsaicin, Nvanillyl-trans-8-methyl-6-nonenamide, reference compound]
ED50 [2]: 1.34 mg/kg

COc1cc(CC(=O)NCCCc2ccc(C)c(C)c2)ccc1OCCN [Control, reference compound]
Convulsion ([3]; Amount 0.2 mgg): 1 | Salivation ([3]; Amount 0.2 mgg): 0 | Urination ([3]; Amount 0.2 mgg): 0 | Dyspnoea ([3]; Amount 0.2 mgg): 4 | Ptosis ([3]; Amount 0.2 mgg): 4 | Sedation ([3]; Amount 0.2 mgg): 4 | Vasodilation ([3]; Amount 0.2 mgg): 4 | Convulsion ([3]; Amount 0.25 mgg): 1 | Salivation ([3]; Amount 0.25 mgg): 0 | Urination ([3]; Amount 0.25 mgg): 0 | Dyspnoea ([3]; Amount 0.25 mgg): 5 | Ptosis ([3]; Amount 0.25 mgg): 6 | Sedation ([3]; Amount 0.25 mgg): 6 | Vasodilation ([3]; Amount 0.25 mgg): 5 | Convulsion ([3]; Amount 0.5 mgg): 1 | Salivation ([3]; Amount 0.5 mgg): 0 | Urination ([3]; Amount 0.5 mgg): 0 | Dyspnoea ([3]; Amount 0.5 mgg): 6 | Ptosis ([3]; Amount 0.5 mgg): 7 | Sedation ([3]; Amount 0.5 mgg): 7 | Vasodilation ([3]; Amount 0.5 mgg): 5 | Convulsion ([3]; Amount 1 mgg): 1 | Salivation ([3]; Amount 1 mgg): 0 | Urination ([3]; Amount 1 mgg): 0 | Dyspnoea ([3]; Amount 1 mgg): 6 | Ptosis ([3]; Amount 1 mgg): 7 | Sedation ([3]; Amount 1 mgg): 7 | Vasodilation ([3]; Amount 1 mgg): 6

COc1cc(CC(=O)NCCCc2ccc(C)c(C)c2)ccc1OCCO [Example 1, N-{3-(3,4-dimethylphenyl)propyl}-4-(2-hydroxyethoxy)-3-methoxyphenylacetamide]
Convulsion ([3]; Amount 1 mgg): 0 | Salivation ([3]; Amount 1 mgg): 0 | Urination ([3]; Amount 1 mgg): 0 | Dyspnoea ([3]; Amount 1 mgg): 4 | Ptosis ([3]; Amount 1 mgg): 4 | Sedation ([3]; Amount 1 mgg): 4 | Vasodilation ([3]; Amount 1 mgg): 4 | Convulsion ([3]; Amount 2 mgg): 0 | Salivation ([3]; Amount 2 mgg): 0 | Urination ([3]; Amount 2 mgg): 0 | Dyspnoea ([3]; Amount 2 mgg): 4 | Ptosis ([3]; Amount 2 mgg): 4 | Sedation ([3]; Amount 2 mgg): 4 | Vasodilation ([3]; Amount 2 mgg): 4 | Convulsion ([3]; Amount 4 mgg): 0 | Salivation ([3]; Amount 4 mgg): 0 | Urination ([3]; Amount 4 mgg): 0 | Dyspnoea ([3]; Amount 4 mgg): 5 | Ptosis ([3]; Amount 4 mgg): 5 | Sedation ([3]; Amount 4 mgg): 6 | Vasodilation ([3]; Amount 4 mgg): 5 | ED50 [2, 4]: 2.01 mg/kg

COc1cc(CC(=O)NCCCc2ccc(C)c(C)c2)ccc1OCCNCCO [Example 2, N-{3-(3,4-dimethylphenyl)propyl}-4-[2-{N-(2-hydroxyethyl)}aminoethoxy]-3-methoxy phenylacetamide]
ED50 [1, 5]: 0.83 mg/kg | Convulsion ([3]; Amount 0.25 mgg): 0 | Salivation ([3]; Amount 0.25 mgg): 0 | Urination ([3]; Amount 0.25 mgg): 0 | Dyspnoea ([3]; Amount 0.25 mgg): 4 | Ptosis ([3]; Amount 0.25 mgg): 4 | Sedation ([3]; Amount 0.25 mgg): 4 | Vasodilation ([3]; Amount 0.25 mgg): 4 | Convulsion ([3]; Amount 0.5 mgg): 0 | Salivation ([3]; Amount 0.5 mgg): 0 | Urination ([3]; Amount 0.5 mgg): 0 | Dyspnoea ([3]; Amount 0.5 mgg): 4 | Ptosis ([3]; Amount 0.5 mgg): 5 | Sedation ([3]; Amount 0.5 mgg): 5 | Vasodilation ([3]; Amount 0.5 mgg): 4 | Convulsion ([3]; Amount 1 mgg): 0 | Salivation ([3]; Amount 1 mgg): 0 | Urination ([3]; Amount 1 mgg): 0 | Dyspnoea ([3]; Amount 1 mgg): 5 | Ptosis ([3]; Amount 1 mgg): 6 | Sedation ([3]; Amount 1 mgg): 6 | Vasodilation ([3]; Amount 1 mgg): 5 | ED50 [2, 4]: 0.3 mg/kg

COc1cc(CC(=O)NCCCc2ccc(C)c(C)c2)ccc1OCCN(CCO)CCO [Example 3, N-{3-(3,4-dimethylphenyl)propyl}-4-[2-{N,N-di(2-hydroxyethyl)}aminoethoxy]-3-methoxyphenylacetamide]
Convulsion ([3]; Amount 1.25 mgg): 0 | Salivation ([3]; Amount 1.25 mgg): 0 | Urination ([3]; Amount 1.25 mgg): 0 | Dyspnoea ([3]; Amount 1.25 mgg): 4 | Ptosis ([3]; Amount 1.25 mgg): 4 | Sedation ([3]; Amount 1.25 mgg): 4 | Vasodilation ([3]; Amount 1.25 mgg): 4 | Convulsion ([3]; Amount 2.5 mgg): 0 | Salivation ([3]; Amount 2.5 mgg): 0 | Urination ([3]; Amount 2.5 mgg): 0 | Dyspnoea ([3]; Amount 2.5 mgg): 4 | Ptosis ([3]; Amount 2.5 mgg): 5 | Sedation ([3]; Amount 2.5 mgg): 5 | Vasodilation ([3]; Amount 2.5 mgg): 4 | Convulsion ([3]; Amount 5 mgg): 0 | Salivation ([3]; Amount 5 mgg): 0 | Urination ([3]; Amount 5 mgg): 0 | Dyspnoea ([3]; Amount 5 mgg): 6 | Ptosis ([3]; Amount 5 mgg): 7 | Sedation ([3]; Amount 5 mgg): 6 | Vasodilation ([3]; Amount 5 mgg): 5 | ED50 [2, 4]: 1.41 mg/kg

COc1cc(CC(=O)NCCCc2ccc(C)c(C)c2)ccc1OCCNCCN [Example 4, N-{3-(3,4-dimethylphenyl)propyl}-4-[2-{N-(2-aminoethyl)}aminoethoxy]-3-methoxyphenylacetamide]
ED50 [2, 4]: 1.78 mg/kg

COc1cc(CC(=O)NCCCc2ccc(C)c(C)c2)ccc1OCCN1CCNCC1 [Example 5, N-{3-(3,4-dimethylphenyl)propyl}-4-(2-piperazinylethoxy)-3-methoxyphenylacetamide]
Convulsion ([3]; Amount 1 mgg): 0 | Salivation ([3]; Amount 1 mgg): 0 | Urination ([3]; Amount 1 mgg): 0 | Dyspnoea ([3]; Amount 1 mgg): 4 | Ptosis ([3]; Amount 1 mgg): 4 | Sedation ([3]; Amount 1 mgg): 4 | Vasodilation ([3]; Amount 1 mgg): 4 | Convulsion ([3]; Amount 2 mgg): 0 | Salivation ([3]; Amount 2 mgg): 0 | Urination ([3]; Amount 2 mgg): 0 | Dyspnoea ([3]; Amount 2 mgg): 4 | Ptosis ([3]; Amount 2 mgg): 4 | Sedation ([3]; Amount 2 mgg): 4 | Vasodilation ([3]; Amount 2 mgg): 4 | Convulsion ([3]; Amount 4 mgg): 0 | Salivation ([3]; Amount 4 mgg): 0 | Urination ([3]; Amount 4 mgg): 0 | Dyspnoea ([3]; Amount 4 mgg): 4 | Ptosis ([3]; Amount 4 mgg): 6 | Sedation ([3]; Amount 4 mgg): 6 | Vasodilation ([3]; Amount 4 mgg): 4 | ED50 [2, 4]: > 20 mg/kg

COc1cc(CC(=O)NCCCc2ccc(C)c(C)c2)ccc1OCCNC=O [Example 6]
ED50 [2, 4]: 0.26 mg/kg

COc1cc(CC(=O)NCCCc2ccc(C)c(C)c2)ccc1OCCNC(=O)OCc1ccccc1 [Example 7, N-{3-(3,4-dimethylphenyl)propyl}-4-{2-(N-benzyloxycarbonyl)aminoethoxy}-3-methoxyphenylacetamide]
ED50 [2, 4]: 1.51 mg/kg

CNCCOc1ccc(CC(=O)NCCCc2ccc(C)c(C)c2)cc1OC [Example 8, N-{3-(3,4-dimethylphenyl)propyl}-4-(2-methylaminoethoxy)-3-methoxyphenylacetamide]
ED50 [1, 5]: 0.68 mg/kg

COc1cc(CC(=O)NCCCc2ccc(C)c(C)c2)ccc1OCCN1CCCC1 [Example 9, N-{3-(3,4-dimethylphenyl)propyl}-4-{2-(1-pyrrolidinyl)ethoxy}-3-methoxyphenylacetamide]
ED50 [2, 4]: > 5 mg/kg

CCOC(=O)NCCOc1ccc(CC(=O)NCCCc2ccc(C)c(C)c2)cc1OC [Example 10, N-{3-(3,4-dimethylphenyl)propyl}-4-{2-(N-ethyloxycarbonyl)aminoethoxy}-3-methoxyphenylacetamide]
ED50 acetic acid [2, 4]: > 10 mg/kg of a body weight

COc1cc(CC(=O)NCCCc2ccc(C)c(C)c2)ccc1OCCNC(=O)c1ccccc1OC(C)=O [Example 11, N-{3-(3,4-dimethylphenyl)propyl}-4-[2-{N-(2-acetoxybenzoyl)}aminoethoxy]-3-methoxyphenylacetamide]
ED50 [2, 4]: 4.15 mg/kg

CC(C)Cc1ccc(C(C)C(=O)O)cc1 (stereo not drawn) [Ibuprofen]
ED50 [1, 5]: 11 mg/kg

CCCCCCCC/C=C\CCCCCCCC(=O)NCc1ccc(O)c(OC)c1 [NE-19550, Nvanillyloleamide, reference compound]
ED50 [2]: 15.7 mg/kg

CCCCCCCC/C=C\CCCCCCCC(=O)NCc1ccc(OCCN)c(OC)c1 [NE-21610, N{4(2-aminoethoxy)-3-methoxybenzyl)-oleamide, reference compound]
ED50 [1, 5]: 38.3 mg/kg | ED50 [2, 4]: > 300 mg/kg

COc1ccc2cc([C@H](C)C(=O)O)ccc2c1 [Naproxen]
ED50 [1, 5]: 17.1 mg/kg

CCCCC1C(=O)N(c2ccccc2)N(c2ccccc2)C1=O [Phenylbutazone]
ED50 [1, 5]: 79.8 mg/kg
